# Test results as given in ChEMBL document CHEMBL1201862, “PubChem BioAssay data set” (2004).
# Active and inactive are the calls of the source.
# What was measured:
# [1] = tested on: T-cell; assay: loss of vesicle association with mouse CD8+ T cells – mouse 2C CD8+ T cells, flow cytometry, dose response (AID 485284); format: functional
# [2] = target: T1, E3 ubiquitin-protein ligase XIAP (Homo sapiens, UniProt P98170); assay: small molecules displacing peptide from XIAP – biochemical, IAP family, fluorescence polarization (AID 1018); format: functional
# [3] = target: T1, E3 ubiquitin-protein ligase XIAP; assay: Counter Screen using XIAP-Bir3 for Chemical Antagonists of Bir1/2 domains of IAP-family anti-apoptotic proteins. [Related pubchem assays (depositor defined):AID1018, AID1449, AID1514, AID1638, AID1749, AID1750, AID488957, AID488963]
# [4] = target: T2, Microphthalmia-associated transcription factor (Homo sapiens, UniProt O75030); assay: reducers of TRPM1 reporter luminescence, concentration series – cell-based, SK-MEL-5, cherry-picked, set 3, MITF inhibitor project, dose response (AID 493073); format: functional;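 further: SK-MEL-5 melanoma cells with luciferase driven by the MITF target TRPM1 promoter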
# T2 sequence (O75030 whole entry): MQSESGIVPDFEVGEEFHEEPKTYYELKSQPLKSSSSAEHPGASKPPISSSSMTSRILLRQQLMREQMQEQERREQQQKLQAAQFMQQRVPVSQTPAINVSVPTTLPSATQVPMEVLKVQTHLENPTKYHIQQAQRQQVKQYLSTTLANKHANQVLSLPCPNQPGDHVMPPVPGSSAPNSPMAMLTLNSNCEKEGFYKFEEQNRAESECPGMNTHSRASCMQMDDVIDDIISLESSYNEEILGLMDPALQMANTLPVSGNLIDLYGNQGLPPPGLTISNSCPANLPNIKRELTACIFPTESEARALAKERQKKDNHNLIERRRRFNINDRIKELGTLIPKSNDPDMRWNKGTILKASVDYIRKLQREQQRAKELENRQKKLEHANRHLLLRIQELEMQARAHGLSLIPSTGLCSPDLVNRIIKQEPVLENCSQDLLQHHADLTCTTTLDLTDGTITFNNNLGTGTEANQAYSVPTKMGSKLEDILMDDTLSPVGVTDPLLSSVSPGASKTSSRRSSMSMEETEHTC
# [5] = viability of HCT116 lacking mutant beta-catenin – cell-based, human colon tumor, dose response (AID 1045); format: functional;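 further: HCT116 colon tumor cells with beta catenin knocked out; cells exposed to compound for 60 hours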
# [6] = viability of PTEN-deleted HCT116 cells – cell-based, HCT116 PTEN knockout, dose response (AID 1047); format: functional;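 further: HCT116 colon tumor cells with PTEN knocked out; cells exposed to compound for 60 hours before readout; potency for loss of cell viability measured by luminescence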
# [7] = target: Beta-galactosidase (Escherichia coli, UniProt Q8VNN2); assay: detection-enzyme interference by beta-gal modulators – biochemical, E. coli enzyme, set 3, artefact control for CCR6 antagonist project, dose response (AID 504712); format: functional
# [8] = target: G-protein coupled receptor 55 (Homo sapiens, UniProt Q9Y2T6); assay: inhibition of LPI-stimulated GPR55 beta-arrestin translocation – imaging, U2OS, beta-arrestin-GFP, LPI agonist, primary screen (AID 2013); format: functional;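 further: antagonist potency measured as reduced agonist-driven arrestin aggregation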
# [9] = target: T3, Short transient receptor potential channel 4 (Mus musculus, UniProt Q9QUQ5); assay: calcium entry via TRPC4 opening agents – cell-based, HEK293 TRPC4/mu-opioid, Fluo-4 calcium, dose response (AID 434937); format: functional
# T3 sequence (Q9QUQ5 whole entry): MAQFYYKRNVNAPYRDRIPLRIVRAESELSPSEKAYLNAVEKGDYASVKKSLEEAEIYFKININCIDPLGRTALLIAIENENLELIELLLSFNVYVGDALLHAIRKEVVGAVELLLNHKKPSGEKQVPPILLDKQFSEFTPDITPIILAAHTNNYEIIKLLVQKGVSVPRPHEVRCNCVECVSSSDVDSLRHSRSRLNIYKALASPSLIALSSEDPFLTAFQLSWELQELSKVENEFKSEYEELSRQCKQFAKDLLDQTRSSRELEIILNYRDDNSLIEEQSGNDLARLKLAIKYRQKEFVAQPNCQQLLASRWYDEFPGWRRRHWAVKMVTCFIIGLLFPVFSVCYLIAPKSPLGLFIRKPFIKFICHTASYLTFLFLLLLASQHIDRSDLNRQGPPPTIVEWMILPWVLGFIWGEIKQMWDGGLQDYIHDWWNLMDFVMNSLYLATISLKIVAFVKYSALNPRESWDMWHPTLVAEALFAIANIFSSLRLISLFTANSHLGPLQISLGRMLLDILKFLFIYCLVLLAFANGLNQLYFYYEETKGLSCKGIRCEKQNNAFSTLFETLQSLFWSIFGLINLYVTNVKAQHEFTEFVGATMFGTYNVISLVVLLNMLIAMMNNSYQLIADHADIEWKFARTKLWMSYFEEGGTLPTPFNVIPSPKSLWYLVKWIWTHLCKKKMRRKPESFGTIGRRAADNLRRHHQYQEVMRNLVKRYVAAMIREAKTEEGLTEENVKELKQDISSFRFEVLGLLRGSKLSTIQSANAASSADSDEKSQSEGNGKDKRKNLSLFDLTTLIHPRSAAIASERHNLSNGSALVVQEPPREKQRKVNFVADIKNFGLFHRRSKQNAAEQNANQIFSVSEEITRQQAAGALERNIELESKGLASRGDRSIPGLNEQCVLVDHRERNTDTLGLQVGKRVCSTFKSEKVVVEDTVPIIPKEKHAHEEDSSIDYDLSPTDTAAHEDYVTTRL
# [10] = target: T4, DNA repair protein RAD52 homolog (Homo sapiens, UniProt P43351); format: functional, biochemical
# T4 sequence (P43351 whole entry): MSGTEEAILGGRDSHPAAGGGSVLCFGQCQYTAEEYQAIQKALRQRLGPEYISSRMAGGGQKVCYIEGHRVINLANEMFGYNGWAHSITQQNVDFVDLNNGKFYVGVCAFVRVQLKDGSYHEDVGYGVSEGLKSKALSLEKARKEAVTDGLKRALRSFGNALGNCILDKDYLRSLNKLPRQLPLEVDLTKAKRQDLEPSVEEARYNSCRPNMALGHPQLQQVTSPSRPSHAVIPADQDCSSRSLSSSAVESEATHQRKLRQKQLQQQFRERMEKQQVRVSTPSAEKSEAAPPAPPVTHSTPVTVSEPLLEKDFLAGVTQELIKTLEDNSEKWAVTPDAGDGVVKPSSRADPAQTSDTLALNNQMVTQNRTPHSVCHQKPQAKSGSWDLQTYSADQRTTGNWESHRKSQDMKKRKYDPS
# [11] = Luminescence Cell-Based Dose Response HTS to Identify Inhibitors of 5'UTR Stem-Loop Driven Prion Protein mRNA Translation in H4 Neuroglioblastoma Cells. [Related pubchem assays: 1827 (Project Summary), 1813 (Primary HTS)]; format: functional
# [12] = tested on: BJ; assay: BJ-TERT fibroblast viability loss – cell-based, RAS-independent, luminescence, dose response (AID 1933); format: functional; settings: Homo sapiens
# [13] = tested on: BJ; assay: BJ-TERT-LT-ST fibroblast viability loss – cell-based, RAS-independent, luminescence, dose response (AID 1935); format: functional; settings: Homo sapiens;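 further: BJ fibroblasts immortalized with TERT plus LT and ST oncogenes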
# [14] = tested on: BJ; assay: growth inhibition of engineered Ras-driven BJ cells – cell-based, alamar blue fluorescence, cherrypicked samples, dose response (AID 2631); format: functional; settings: Homo sapiens;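 further: confirmatory dose-response assay in RAS-dependent BJ fibroblasts engineered with TERT, LT and ST, with cytotoxicity read by fluorescence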
# [15] = Luminescence Cell-Based Dose Retest to Confirm Activators of 5'UTR Stem-Loop Driven Alpha-Synuclein mRNA Translation in H4 Neuroglioblastoma Cells. [Related pubchem assays (depositor defined):AID1813, AID1829]; format: functional
# [16] = alpha-synuclein stem-loop luciferase translation blockers – H4 neuroglioma cells, luminescence, confirmation (AID 1988); format: functional, cell-based
# [17] = tested on: BJ; assay: cells; format: functional, cell-based; settings: Homo sapiens
# [18] = luciferase reporter signal suppression in cells – H4 neuroglioma cells, luminescence, dose response (AID 1990); format: functional, cell-based
# [19] = Luminescence Cell-Based Dose Response HTS to Identify Activators of Luciferase Translation or Activity in H4-C Neuroglioblastoma Cells. [Related pubchem assays: 1829 (Project Summary), 1814 (Primary HTS)]; format: functional
# [20] = DRD fibroblast viability loss – cell-based, non-viral oncogenic, luminescence, dose response (AID 1934); format: functional; settings: Homo sapiens
# [21] = Luminescence Cell-Based Dose HTS Response to Identify Inhibitors of 5'UTR Stem-Loop Driven Prion Protein mRNA Translation in H4-C Neuroglioblastoma Cells. [Related pubchem assays (depositor defined):AID1814, AID1827]; format: functional
# [22] = Luminescence Cell-Based Dose Response HTS to Identify Inhibitors of Luciferase Translation or Activity in H4-C Neuroglioblastoma Cells. [Related pubchem assays: 1813 (Primary HTS), 1827 (Project Summary)]; format: functional
# [23] = Luminescence Cell-Based Dose Confirmation HTS to Identify Inhibitors of 5'UTR Stem-Loop Driven Alpha-Synuclein mRNA Translation in H4 Neuroglioblastoma Cells. [Related pubchem assays: 1827 (Project Summary), 1813 (Primary HTS)]; format: functional
# [24] = Luminescence Cell-Based Dose Response HTS to Identify Activators of 5'UTR Stem-Loop Driven Prion Protein mRNA Translation in H4-C Neuroglioblastoma Cells. [Related pubchem assays: 1829 (Project Summary), 1814 (Primary HTS)]; format: functional
# [25] = target: T5, Alkaline phosphatase, tissue-nonspecific isozyme (Homo sapiens, UniProt P05186); assay: potency against alkaline phosphatase TNAP – biochemical, luminescent, dose response, SAR follow-up (AID 1056)
# T5 sequence (P05186 whole entry): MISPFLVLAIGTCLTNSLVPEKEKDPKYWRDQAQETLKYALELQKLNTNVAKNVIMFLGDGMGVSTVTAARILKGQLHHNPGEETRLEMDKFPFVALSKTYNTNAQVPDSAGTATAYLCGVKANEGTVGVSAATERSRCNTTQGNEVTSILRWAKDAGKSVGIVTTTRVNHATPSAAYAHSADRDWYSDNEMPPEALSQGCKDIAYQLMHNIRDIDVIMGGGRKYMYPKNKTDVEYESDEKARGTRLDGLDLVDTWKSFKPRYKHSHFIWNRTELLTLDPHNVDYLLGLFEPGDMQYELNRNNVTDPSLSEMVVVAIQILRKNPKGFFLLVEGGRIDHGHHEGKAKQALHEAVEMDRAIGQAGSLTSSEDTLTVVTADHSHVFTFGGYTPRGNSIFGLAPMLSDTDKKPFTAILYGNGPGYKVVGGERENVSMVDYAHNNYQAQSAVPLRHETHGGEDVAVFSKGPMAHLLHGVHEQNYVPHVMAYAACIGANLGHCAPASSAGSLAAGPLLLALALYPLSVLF
# [26] = target: Alkaline phosphatase, placental type (Homo sapiens, UniProt P05187); assay: human placental alkaline phosphatase inhibition – biochemical, luminescence, confirmation (AID 1512); format: functional
# Sequence of Alkaline phosphatase, placental type (P05187 whole entry): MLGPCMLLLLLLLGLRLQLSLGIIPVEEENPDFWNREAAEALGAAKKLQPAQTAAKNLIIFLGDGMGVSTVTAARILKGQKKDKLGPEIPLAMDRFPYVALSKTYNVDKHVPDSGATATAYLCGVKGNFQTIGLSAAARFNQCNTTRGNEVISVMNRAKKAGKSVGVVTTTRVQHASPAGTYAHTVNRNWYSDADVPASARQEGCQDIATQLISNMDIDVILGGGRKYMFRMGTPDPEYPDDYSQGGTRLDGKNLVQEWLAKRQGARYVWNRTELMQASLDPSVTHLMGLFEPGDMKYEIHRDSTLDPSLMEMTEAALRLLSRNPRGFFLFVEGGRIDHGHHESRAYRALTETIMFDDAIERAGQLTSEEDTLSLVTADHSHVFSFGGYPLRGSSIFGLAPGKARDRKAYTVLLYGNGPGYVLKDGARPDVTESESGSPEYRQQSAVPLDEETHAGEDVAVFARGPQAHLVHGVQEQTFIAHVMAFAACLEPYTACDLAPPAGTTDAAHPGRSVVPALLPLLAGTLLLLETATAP
# T1 sequence (P98170 whole entry): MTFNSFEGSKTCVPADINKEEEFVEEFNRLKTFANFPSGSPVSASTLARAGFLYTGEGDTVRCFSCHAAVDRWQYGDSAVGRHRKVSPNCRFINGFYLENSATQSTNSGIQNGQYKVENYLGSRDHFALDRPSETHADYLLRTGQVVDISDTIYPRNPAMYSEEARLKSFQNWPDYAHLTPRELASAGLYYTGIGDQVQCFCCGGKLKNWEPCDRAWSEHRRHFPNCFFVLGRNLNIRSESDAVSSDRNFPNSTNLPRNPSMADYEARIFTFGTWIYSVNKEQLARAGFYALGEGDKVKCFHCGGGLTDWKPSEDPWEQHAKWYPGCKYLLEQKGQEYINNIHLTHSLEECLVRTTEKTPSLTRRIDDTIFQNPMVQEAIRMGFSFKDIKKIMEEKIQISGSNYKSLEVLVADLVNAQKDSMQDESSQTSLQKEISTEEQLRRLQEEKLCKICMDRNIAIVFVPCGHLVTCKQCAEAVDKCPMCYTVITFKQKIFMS
# Sequence of Beta-galactosidase (Q8VNN2 whole entry): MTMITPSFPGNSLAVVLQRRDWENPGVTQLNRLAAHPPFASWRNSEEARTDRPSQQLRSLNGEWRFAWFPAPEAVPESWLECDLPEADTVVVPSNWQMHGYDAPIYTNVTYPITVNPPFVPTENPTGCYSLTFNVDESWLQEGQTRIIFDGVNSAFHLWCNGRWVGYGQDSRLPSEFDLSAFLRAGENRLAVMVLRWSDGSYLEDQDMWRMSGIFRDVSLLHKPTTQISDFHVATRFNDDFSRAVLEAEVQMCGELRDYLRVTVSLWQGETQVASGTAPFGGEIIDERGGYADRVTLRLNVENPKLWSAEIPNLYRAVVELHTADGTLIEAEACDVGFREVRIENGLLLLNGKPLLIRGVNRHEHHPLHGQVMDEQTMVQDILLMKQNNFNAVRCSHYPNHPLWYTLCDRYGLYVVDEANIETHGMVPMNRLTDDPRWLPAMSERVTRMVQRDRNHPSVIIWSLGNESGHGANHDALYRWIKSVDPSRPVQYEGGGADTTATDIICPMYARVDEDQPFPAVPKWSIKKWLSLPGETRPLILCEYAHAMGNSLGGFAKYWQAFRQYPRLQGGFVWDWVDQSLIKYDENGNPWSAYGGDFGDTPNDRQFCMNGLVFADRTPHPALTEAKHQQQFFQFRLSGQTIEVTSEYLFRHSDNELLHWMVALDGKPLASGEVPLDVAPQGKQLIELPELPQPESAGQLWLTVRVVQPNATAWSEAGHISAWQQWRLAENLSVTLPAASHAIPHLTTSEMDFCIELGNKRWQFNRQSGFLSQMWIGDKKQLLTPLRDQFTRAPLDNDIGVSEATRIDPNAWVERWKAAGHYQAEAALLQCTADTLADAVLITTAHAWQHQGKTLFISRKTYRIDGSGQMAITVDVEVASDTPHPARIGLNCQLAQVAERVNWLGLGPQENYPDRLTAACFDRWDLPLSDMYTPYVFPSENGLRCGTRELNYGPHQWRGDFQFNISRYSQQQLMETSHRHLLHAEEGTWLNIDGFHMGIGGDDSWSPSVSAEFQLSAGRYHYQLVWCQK
# Sequence of G-protein coupled receptor 55 (Q9Y2T6 whole entry): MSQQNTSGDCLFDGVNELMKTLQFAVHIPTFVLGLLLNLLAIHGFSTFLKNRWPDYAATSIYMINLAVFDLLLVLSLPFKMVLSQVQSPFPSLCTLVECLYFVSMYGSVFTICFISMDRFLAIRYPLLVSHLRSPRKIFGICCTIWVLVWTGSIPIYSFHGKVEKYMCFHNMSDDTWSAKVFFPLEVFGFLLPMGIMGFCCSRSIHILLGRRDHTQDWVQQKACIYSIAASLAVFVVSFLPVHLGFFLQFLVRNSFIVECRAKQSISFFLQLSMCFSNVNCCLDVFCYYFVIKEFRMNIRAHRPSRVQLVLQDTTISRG
compound,measurement,setting,value
COC(=O)c1ccccc1NC(=O)C1CCN(C(=O)c2cc(OC)cc(OC)c2)CC1,EC50,[1],0.641 µM (active)
COc1ccc2c(C)cc(SCC(=O)Nc3ccc(Cl)cn3)nc2c1,IC50,[2],> 100 µM (not active)
same,IC50,[3],> 100 µM (inactive)
CC1=NOC(=O)/C1=C\c1ccc(-c2cccc(Cl)c2)o1,AC50,[4],5.36 µM (active)
same,EC50,[5],11.8 µM (active)
same,EC50,[6],14.5 µM (active)
same,IC50,[7],> 66.6 µM (inactive)
same,IC50,[8],8.52 µM (active)
CCN(c1ccccc1)S(=O)(=O)c1ccc(C(=O)N(CCCN(C)C)c2nc3cc4c(cc3s2)OCO4)cc1,EC50,[9],5.31 µM (active)
same,AC50,[10],11.1 µM (active)
COC(=O)C1CC23C=CCN4CCC5(c6ccccc6NC15C2C)C43 (stereo unspecified),EC50,[11],2.28 µM (active)
same,EC50,[12],0.612 µM (active)
same,EC50,[13],0.574 µM (inconclusive)
same,EC50,[14],< 0.104 µM (active)
same,EC50,[15],7.37 µM (inconclusive)
same,EC50,[16],0.134 µM (active)
same,EC50,[17],7.77 µM (active)
same,EC50,[18],4.2 µM (active)
same,EC50,[19],1.07 µM (inconclusive)
same,EC50,[20],0.495 µM (active)
same,EC50,[21],1.13 µM (active)
same,EC50,[22],1.07 µM (active)
same,EC50,[23],7.37 µM (active)
same,EC50,[24],1.13 µM (inconclusive)
Cc1cccc(-c2nc3c(c(SCC(=O)c4ccc(O)c(O)c4)n2)CCCC3)c1,IC50,[25],78.5 µM (active)
same,IC50,[26],> 100 µM (inactive)
